Data on 26 compounds can be found in patent US20230148214A1, “INDAZOLES AND AZAINDAZOLES AS LRRK2 INHIBITORS” (ESCAPE Bio, Inc., priority 2020, published 2023).

By IC50 is commonly meant the point on the concentration scale where inhibition reaches its midpoint.

In one experiment the target is T1, LRRK2 G2019S (Homo sapiens, UniProt Q5S007, G2019S).
T1 construct: purchased Life Technologies PV4881
The experiment can be described thus: LRRK2 Kinase Activity Assay (LanthaScreen TR-FRET), G2019S. The experiment is classed as biochemical. As to conditions: recombinant G2019S-LRRK2, 25 μM ATP, 400 nM LRRKtide, 60 min; class symbols. The essentials: (§1)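 Recombinant wild-type or G2019S LRRK2 incubated with fluorescein-labeled LRRKtide (ERM-based) peptide, ATP and serially diluted compound for 60 min at room temperature.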

The target of the next experiment is T2, LRRK2 WT (Homo sapiens, UniProt Q5S007).
T2 construct: purchased Life Technologies PR8604B
The experiment is described as follows: LRRK2 Kinase Activity Assay (LanthaScreen TR-FRET), wild type. The experiment is classed as biochemical. As to conditions: recombinant wild type LRRK2, 25 μM ATP, 400 nM LRRKtide, 60 min; class symbols. Put shortly:
as §1
Background: In TR-FRET formats the signal depends on donor and acceptor labels being close together.

T2 sequence (Q5S007 whole entry): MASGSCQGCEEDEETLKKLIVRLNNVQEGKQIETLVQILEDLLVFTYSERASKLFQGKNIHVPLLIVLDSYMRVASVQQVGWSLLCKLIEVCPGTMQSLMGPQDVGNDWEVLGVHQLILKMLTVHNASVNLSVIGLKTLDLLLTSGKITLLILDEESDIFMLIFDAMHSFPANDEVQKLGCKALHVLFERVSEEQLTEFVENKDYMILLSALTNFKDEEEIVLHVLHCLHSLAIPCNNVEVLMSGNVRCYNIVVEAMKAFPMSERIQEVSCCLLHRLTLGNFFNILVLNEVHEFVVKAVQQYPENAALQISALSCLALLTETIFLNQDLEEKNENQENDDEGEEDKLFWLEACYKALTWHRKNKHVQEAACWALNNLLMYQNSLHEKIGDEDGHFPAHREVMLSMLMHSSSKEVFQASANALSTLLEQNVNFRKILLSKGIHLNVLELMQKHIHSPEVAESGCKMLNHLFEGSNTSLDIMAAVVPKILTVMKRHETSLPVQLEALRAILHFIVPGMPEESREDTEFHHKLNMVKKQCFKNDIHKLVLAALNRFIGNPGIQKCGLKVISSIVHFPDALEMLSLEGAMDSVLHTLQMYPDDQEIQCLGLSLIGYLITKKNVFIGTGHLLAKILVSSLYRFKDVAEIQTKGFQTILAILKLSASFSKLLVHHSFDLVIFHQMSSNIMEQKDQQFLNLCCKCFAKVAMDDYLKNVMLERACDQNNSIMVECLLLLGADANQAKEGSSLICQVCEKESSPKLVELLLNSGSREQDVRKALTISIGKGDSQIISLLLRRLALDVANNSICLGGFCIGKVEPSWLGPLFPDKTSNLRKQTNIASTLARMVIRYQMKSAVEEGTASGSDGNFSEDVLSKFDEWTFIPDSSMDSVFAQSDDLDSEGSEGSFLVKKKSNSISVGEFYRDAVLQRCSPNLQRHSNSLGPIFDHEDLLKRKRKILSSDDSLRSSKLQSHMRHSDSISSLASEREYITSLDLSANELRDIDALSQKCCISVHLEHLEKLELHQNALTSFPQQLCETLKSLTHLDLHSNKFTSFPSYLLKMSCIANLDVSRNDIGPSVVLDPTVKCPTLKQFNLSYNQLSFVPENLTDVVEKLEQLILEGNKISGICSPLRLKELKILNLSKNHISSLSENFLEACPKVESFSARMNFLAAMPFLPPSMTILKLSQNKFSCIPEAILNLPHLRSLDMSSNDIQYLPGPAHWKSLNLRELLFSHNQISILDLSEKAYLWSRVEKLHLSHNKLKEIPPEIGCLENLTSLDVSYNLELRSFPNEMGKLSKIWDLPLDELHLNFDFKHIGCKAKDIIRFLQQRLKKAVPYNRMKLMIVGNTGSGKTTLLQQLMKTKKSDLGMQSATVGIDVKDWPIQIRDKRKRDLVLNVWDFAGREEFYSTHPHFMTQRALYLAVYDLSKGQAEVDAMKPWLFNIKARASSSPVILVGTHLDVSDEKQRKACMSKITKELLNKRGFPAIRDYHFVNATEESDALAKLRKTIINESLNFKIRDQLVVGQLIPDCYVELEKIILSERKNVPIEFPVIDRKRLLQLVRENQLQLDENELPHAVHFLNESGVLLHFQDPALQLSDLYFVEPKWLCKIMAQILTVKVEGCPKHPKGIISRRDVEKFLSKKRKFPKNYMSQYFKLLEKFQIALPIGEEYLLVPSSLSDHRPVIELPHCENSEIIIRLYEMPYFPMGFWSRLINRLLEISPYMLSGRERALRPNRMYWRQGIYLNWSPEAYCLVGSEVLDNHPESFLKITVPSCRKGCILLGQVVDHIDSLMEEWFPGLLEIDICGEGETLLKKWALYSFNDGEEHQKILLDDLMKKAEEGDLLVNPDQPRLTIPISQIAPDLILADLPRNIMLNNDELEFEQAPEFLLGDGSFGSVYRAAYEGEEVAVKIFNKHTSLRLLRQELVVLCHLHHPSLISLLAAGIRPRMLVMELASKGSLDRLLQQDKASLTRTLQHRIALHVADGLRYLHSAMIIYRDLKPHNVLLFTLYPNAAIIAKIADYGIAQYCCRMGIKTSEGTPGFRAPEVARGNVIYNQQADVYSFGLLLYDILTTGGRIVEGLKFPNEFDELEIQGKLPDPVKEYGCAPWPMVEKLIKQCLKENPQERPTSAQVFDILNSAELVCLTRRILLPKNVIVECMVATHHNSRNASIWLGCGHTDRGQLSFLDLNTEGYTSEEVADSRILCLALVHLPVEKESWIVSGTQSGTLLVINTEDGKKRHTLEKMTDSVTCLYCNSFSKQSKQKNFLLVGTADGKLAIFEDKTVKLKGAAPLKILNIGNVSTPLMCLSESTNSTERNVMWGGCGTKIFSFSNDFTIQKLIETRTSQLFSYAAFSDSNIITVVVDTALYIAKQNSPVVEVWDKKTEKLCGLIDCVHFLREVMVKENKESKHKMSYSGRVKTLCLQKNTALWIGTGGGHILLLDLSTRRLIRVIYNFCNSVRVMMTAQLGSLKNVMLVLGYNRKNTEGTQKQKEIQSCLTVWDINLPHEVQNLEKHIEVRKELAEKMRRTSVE
T1 sequence (Q5S007 whole entry G2019S): as the sequence (Q5S007 whole entry) above, with G2019S counted along it

With `N#Cc1ccc2c(c1)CC[C@@H]2Nc1ccc2[nH]nc(-c3cnco3)c2c1` (single isomer, unassigned) [Example 9, enantiomer 1, 1-((3-(Oxazol-5-yl)-1H-indazol-5-yl)amino)-2,3-dihydro-1H-indene-5-carbonitrile], the IC50 at LRRK2 G2019S and at LRRK2 WT was below 100 nM in each case.
Take `N#Cc1ccc2c(c1)CC[C@@H]2Nc1ccc2[nH]nc(-c3ccoc3)c2c1` (single isomer, unassigned) [Example 11, enantiomer 1, 1-((3-(Furan-3-yl)-1H-indazol-5-yl)amino)-2,3-dihydro-1H-indene-5-carbonitrile]: the IC50 at LRRK2 G2019S is below 100 nM; at LRRK2 WT, 100 to 1000 nM.
The like results for `N#Cc1ccc2c(c1)CC[C@@H]2Nc1ccc2[nH]nc(-c3cnn(C(F)F)c3)c2c1` (single isomer, unassigned) [Example 12, enantiomer 1, 1-((3-(1-(Difluoromethyl)-1H-pyrazol-4-yl)-1H-indazol-5-yl)amino)-2,3-dihydro-1H-indene-5-carbonitrile] were, in that order, below 100 nM and below 100 nM.
Taken in the same sequence, the figures for `Cc1cc(C#N)cc2c1[C@@H](Oc1ccc3[nH]nc(-c4cnco4)c3c1)CC2` (single isomer, unassigned) [Example 14, enantiomer 1, 7-Methyl-1-((3-(oxazol-5-yl)-1H-indazol-5-yl)oxy)-2,3-dihydro-1H-indene-5-carbonitrile] were below 100 nM and below 100 nM.
Taken in the same sequence, the figures for `N#Cc1ccc2c(c1)CCC[C@@H]2Nc1ccc2[nH]nc(I)c2c1` (single isomer, unassigned) [Example 15, enantiomer 1, 5-((3-Iodo-1H-indazol-5-yl)amino)-5,6,7,8-tetrahydronaphthalene-2-carbonitrile] were below 100 nM and 100 to 1000 nM.
With `N#Cc1ccc2c(c1)CCC[C@@H]2Nc1ccc2[nH]nc(I)c2c1` (single isomer, unassigned) [Example 15, enantiomer 2, 5-((3-Iodo-1H-indazol-5-yl)amino)-5,6,7,8-tetrahydronaphthalene-2-carbonitrile], the IC50 at LRRK2 G2019S fell in the range of 100 to 1000 nM; on LRRK2 WT it was 1000 to 10000 nM.
Taken in the same sequence, the figures for `N#Cc1cnc2c(c1)CCC[C@@H]2Oc1ccc2[nH]nc(-c3cnco3)c2c1` (single isomer, unassigned) [Example 16, enantiomer 1, 8-((3-(Oxazol-5-yl)-1H-indazol-5-yl)oxy)-5,6,7,8-tetrahydroquinoline-3-carbonitrile] were below 100 nM and below 100 nM.
Regarding `N#Cc1ccc2c(c1)CCC[C@@H]2Oc1ccc2[nH]nc(-c3cnoc3)c2c1` (single isomer, unassigned) [Example 17, enantiomer 1, 5-((3-(Isoxazol-4-yl)-1H-indazol-5-yl)oxy)-5,6,7,8-tetrahydronaphthalene-2-carbonitrile], the IC50 on LRRK2 G2019S and on LRRK2 WT was below 100 nM each time.
Take `N#Cc1ccc2c(c1)CCC[C@@H]2Oc1ccc2[nH]nc(-c3cnoc3)c2c1` (single isomer, unassigned) [Example 17, enantiomer 2, 5-((3-(Isoxazol-4-yl)-1H-indazol-5-yl)oxy)-5,6,7,8-tetrahydronaphthalene-2-carbonitrile]: the IC50 is below 100 nM on LRRK2 G2019S and 100 to 1000 nM on LRRK2 WT.
The like results for `N#Cc1ccc2c(c1)CCC[C@@H]2Oc1ccc2[nH]nc(-c3cnco3)c2c1` (single isomer, unassigned) [Example 18, enantiomer 1, 5-((3-(Oxazol-5-yl)-1H-indazol-5-yl)oxy)-5,6,7,8-tetrahydronaphthalene-2-carbonitrile] were, in that order, below 100 nM and below 100 nM.
On to `Cc1n[nH]c2ccc(O[C@H]3CCCc4cc(C#N)ccc43)cc12` (single isomer, unassigned) [Example 19, enantiomer 1, 5-((3-Methyl-1H-indazol-5-yl)oxy)-5,6,7,8-tetrahydronaphthalene-2-carbonitrile], for which the IC50 on LRRK2 G2019S and at LRRK2 WT was 100 to 1000 nM each time.
Consider `Cc1n[nH]c2ccc(O[C@H]3CCCc4cc(C#N)ccc43)cc12` (single isomer, unassigned) [Example 19, enantiomer 2, 5-((3-Methyl-1H-indazol-5-yl)oxy)-5,6,7,8-tetrahydronaphthalene-2-carbonitrile], for which the results for the IC50 on LRRK2 G2019S and on LRRK2 WT were below 100 nM and 100 to 1000 nM, respectively.
The like results for `N#Cc1ccc2c(c1)CC[C@@H]2Oc1cc2c(-c3cnco3)n[nH]c2cn1` (single isomer, unassigned) [Example 20, enantiomer 1, 1-((3-(Oxazol-5-yl)-1H-pyrazolo[3,4-c]pyridin-5-yl)oxy)-2,3-dihydro-1H-indene-5-carbonitrile] were, in that order, below 100 nM and below 100 nM.
Taken in the same sequence, the figures for `N#Cc1ccc2c(c1)CC[C@@H]2Oc1cc2c(-c3cnco3)n[nH]c2cn1` (single isomer, unassigned) [Example 20, enantiomer 2, 1-((3-(Oxazol-5-yl)-1H-pyrazolo[3,4-c]pyridin-5-yl)oxy)-2,3-dihydro-1H-indene-5-carbonitrile] were below 100 nM and 100 to 1000 nM.
For the compound `N#Cc1ccc2c(c1)CC[C@@H]2Nc1cc2c(-c3cnco3)n[nH]c2cn1` (single isomer, unassigned) [Example 21, enantiomer 1, 1-((3-(Oxazol-5-yl)-1H-pyrazolo[3,4-c]pyridin-5-yl)amino)-2,3-dihydro-1H-indene-5-carbonitrile], the IC50 at LRRK2 G2019S and on LRRK2 WT was below 100 nM throughout.
For the compound `N#Cc1ccc2c(c1)CC[C@@H]2Nc1cc2c(-c3cnco3)n[nH]c2cn1` (single isomer, unassigned) [Example 21, enantiomer 2, 1-((3-(Oxazol-5-yl)-1H-pyrazolo[3,4-c]pyridin-5-yl)amino)-2,3-dihydro-1H-indene-5-carbonitrile], the IC50 is below 100 nM at LRRK2 G2019S and 100 to 1000 nM on LRRK2 WT.
Taken in the same sequence, the figures for `Cc1c(C#N)ccc2c1CC[C@@H]2Oc1ccc2[nH]nc(-c3cnco3)c2c1` (single isomer, unassigned) [Example 22, enantiomer 1, 4-Methyl-1-((3-(oxazol-5-yl)-1H-indazol-5-yl)oxy)-2,3-dihydro-1H-indene-5-carbonitrile] were below 100 nM and below 100 nM.
Taken in the same sequence, the figures for `N#Cc1cc2c(cc1F)[C@@H](Oc1ccc3[nH]nc(-c4cnco4)c3c1)CC2` (single isomer, unassigned) [Example 23, enantiomer 1, 6-Fluoro-1-((3-(oxazol-5-yl)-1H-indazol-5-yl)oxy)-2,3-dihydro-1H-indene-5-carbonitrile] were below 100 nM and below 100 nM.
Taken in the same sequence, the figures for `N#Cc1ccc2c(c1F)CC[C@@H]2Oc1ccc2[nH]nc(-c3cnco3)c2c1` (single isomer, unassigned) [Example 24, enantiomer 1, 4-Fluoro-1-((3-(oxazol-5-yl)-1H-indazol-5-yl)oxy)-2,3-dihydro-1H-indene-5-carbonitrile] were below 100 nM and below 100 nM.
As for `N#Cc1cc2c(cc1F)[C@@H](Nc1ccc3[nH]nc(-c4cnco4)c3c1)CC2` (single isomer, unassigned) [Example 25, enantiomer 1, 6-Fluoro-1-((3-(oxazol-5-yl)-1H-indazol-5-yl)amino)-2,3-dihydro-1H-indene-5-carbonitrile], the IC50 on LRRK2 G2019S and on LRRK2 WT was below 100 nM in each case.
As to `N#Cc1ccc2c(c1F)CC[C@@H]2Nc1ccc2[nH]nc(-c3cnco3)c2c1` (single isomer, unassigned) [Example 26, enantiomer 1, 4-Fluoro-1-((3-(oxazol-5-yl)-1H-indazol-5-yl)amino)-2,3-dihydro-1H-indene-5-carbonitrile], the IC50 at LRRK2 G2019S and at LRRK2 WT was below 100 nM in each case.
For the compound `Cc1c(C#N)ccc2c1CC[C@@H]2Nc1ccc2[nH]nc(-c3cnco3)c2c1` (single isomer, unassigned) [Example 27, enantiomer 1, 4-methyl-1-((3-(oxazol-5-yl)-1H-indazol-5-yl)amino)-2,3-dihydro-1H-indene-5-carbonitrile], the IC50 at LRRK2 G2019S and on LRRK2 WT was below 100 nM in each case.
Turning to `Cc1cc2c(cc1C#N)CC[C@@H]2Nc1ccc2[nH]nc(-c3cnco3)c2c1` (single isomer, unassigned) [Example 28, enantiomer 1, 6-Methyl-1-((3-(oxazol-5-yl)-1H-indazol-5-yl)amino)-2,3-dihydro-1H-indene-5-carbonitrile], the half-maximal inhibitory concentration (IC50) is below 100 nM at LRRK2 G2019S and 100 to 1000 nM at LRRK2 WT.
The like results for `Cc1cc2c(cc1C#N)CC[C@H]2Oc1ccc2[nH]nc(-c3cnco3)c2c1` (single isomer, unassigned) [Example 29, enantiomer 1, 6-Methyl-1-((3-(oxazol-5-yl)-1H-indazol-5-yl)oxy)-2,3-dihydro-1H-indene-5-carbonitrile] were, in that order, below 100 nM and below 100 nM.
Taken in the same sequence, the figures for `N#Cc1ccc2c(c1)CC[C@H]2Nc1ccc2[nH]nc(-c3cnco3)c2n1` (single isomer, unassigned) [Example 30, enantiomer 1, 1-((3-(Oxazol-5-yl)-1H-pyrazolo[4,3-b]pyridin-5-yl)amino)-2,3-dihydro-1H-indene-5-carbonitrile] were below 100 nM and below 100 nM.
Taken in the same sequence, the figures for `N#Cc1ccc2c(c1)CC[C@H]2Nc1ccc2[nH]nc(-c3cnco3)c2n1` (single isomer, unassigned) [Example 30, enantiomer 2, 1-((3-(Oxazol-5-yl)-1H-pyrazolo[4,3-b]pyridin-5-yl)amino)-2,3-dihydro-1H-indene-5-carbonitrile] were below 100 nM and 100 to 1000 nM.
